# Experimental data from US20240101602A1, “ANTIMICROBIAL PEPTIDES AND METHOD OF PREVENTING OR TREATING INFECTION BY USING THE SAME” (priority 2020, published 2024).
# Like-named read-outs stand apart in the source and are kept apart here. Residues, ends and D or L forms follow the SMILES beside them. *: point of attachment. Myristoyl = CCCCCCCCCCCCCC(=O)*
# Experiments:
# [1] = system: Acinetobacter baumannii ATCC 17978
# [2] = system: Staphylococcus aureus BCRC 10777
# [3] = system: Staphylococcus epidermidis ATCC 14990
# [4] = system: Xanthomonas campestris pv. campestris strain Xcc17; assay: IC50 of bacterial growth (OD600) in rich liquid medium; type: cell-based; settings: Xcc Xcc17, 24 h, purified peptides
# Protocol: (§1) To measure the antimicrobial activity, single colony grown on an optimal rich agar medium for each bacterium was picked and grew in 3 mL of the same rich liquid medium for 4 to 6 h. The bacterial culture was then diluted in the same medium to give a final concentration of OD600=0.08 and then further diluted […] in the same medium. In each well of a 96-well polystyrene plate, 90 μL of the diluted culture was mixed with 10 μL of the peptide to give a peptide concentration of 0, 2, 10, and 20 μg/mL (final cell concentration is 5×10^5 CFU/mL). OD600 was measured after incubation at an optimal temperature for 24 h. IC50 was determined as the lowest peptide concentration inhibiting 50% of bacterial growth.
# [5] = system: Xanthomonas euvesicatoria strain Xvt28; assay: as above; type: cell-based; settings: Xev Xvt28, 24 h, purified peptides
# Protocol: as §1
# [6] = system: Escherichia coli strain DH5a; settings: 24 h
# [7] = system: Xanthomonas oryzae pv. oryzae strain Xoo28; settings: Xoo Xoo28; rich medium, 24 h, purified peptides
# [8] = system: Agrobacterium tumefaciens strain Atu C58C1; settings: rich medium, 24 h, purified peptides
# [9] = system: Candida albicans SC5314; settings: Candida albicans SC5314; 48 h at 35° C., 0.125 to 64 μg/mL (Table 5)
# [10] = Circular dichroism spectroscopy, secondary structure deconvolution; settings: dissolved in water, structural deconvolution of CD spectra
# [11] = system: Eco DH5α; assay: MIC and MBC by serial dilution in 96-well plate; type: cell-based, Escherichia coli
# Protocol: (§2) The effect of peptide length on the antimicrobial activity was investigated by deciding the minimal inhibitory concentration (MIC) and minimal bactericidal concentration (MBC) for each peptide against the pathogen with the media and growth conditions of phytopathogenic bacteria and E. coli as described in Table 1. Single bacterial colony grown on an optimal rich agar medium was picked, and each grew in 3 mL of the same rich liquid medium for 4 to 6 h.
# (§3) For experiments carried out in the rich medium, the bacterial broth culture was then diluted in the same medium to give a final concentration of OD600=0.08, and then further diluted 100 folds in the same medium.
# (§4) For experiments carried out in the minimal medium, the bacterial cells were collected from the bacterial liquid culture by centrifugation, re-suspended in an optimal minimal medium to give a final concentration of OD600=0.08, and then further diluted 100 folds in the same minimal medium.
# (§5) Fifty microliters of serially diluted peptides (2-fold the final concentration) were added in a 96-well polystyrene plate with 50 μL of the bacterial culture. The final concentrations of peptides were 0, 2, 4, 8, 16 and 32 μg/mL. The plates were incubated at an optimal temperature without shaking.
# (§6) MBC was determined as the lowest peptide concentration at which no colonies formed.
# [12] = system: Xanthomonas campestris pv. campestris strain Xcc17; assay: MIC and MBC by serial dilution in 96-well plate; type: cell-based; settings: Xcc Xcc17; Table 7
# Protocol: as §2, §3, §4, §5, §6
# [13] = system: Xanthomonas euvesicatoria strain Xvt28; assay: MIC and MBC by serial dilution in 96-well plate; type: cell-based; settings: Xev Xvt28; Table 7
# Protocol: as §2, §3, §4, §5, §6
# [14] = system: Erwinia chrysanthemi; type: cell-based
# Protocol: (§7) The effect of peptide length on the antimicrobial activity was investigated by deciding the minimal inhibitory concentration (MIC) and minimal bactericidal concentration (MBC) for each peptide against the pathogen with the media and growth conditions of phytopathogenic bacteria and E. coli as described in Table 1. Single bacterial colony grown on an optimal rich agar medium was picked, and each grew in 3 mL of the same rich liquid medium for 4 to 6 h. For experiments carried out in the rich medium, the bacterial broth culture was then diluted in the same medium to give a final concentration of OD600=0.08, and then further diluted 100 folds in the same medium. For experiments carried out in the minimal medium, the bacterial cells were collected from the bacterial liquid culture by centrifugation, re-suspended in an optimal minimal medium to give a final concentration of OD600=0.08, and then further diluted 100 folds in the same minimal medium. Fifty microliters of serially diluted peptides (2-fold the final concentration) were added in a 96-well polystyrene plate with 50 μL of the bacterial culture. […] The plates were incubated at an optimal temperature without shaking. […] MBC was determined as the lowest peptide concentration at which no colonies formed. The experiments were conducted in an optimal minimal medium for each pathogen. The media and growth conditions were described in Tables 2 and 3. MIC and MBC values were determined following the procedures described above. […] Fifty microliters of serially diluted peptides (2-fold the final concentration) were added in a 96-well polystyrene plate with 50 μL of the fungal spore suspension.
# [15] = system: Pectobacterium carotovorum subsp. carotovorum; type: cell-based
# Protocol: as §7
# [16] = system: Botrytis cinerea; type: cell-based; settings: Bc; optimal minimal medium, crude peptides (Table 9)
# Protocol: (§8) The experiments were conducted in an optimal minimal medium for each pathogen. The media and growth conditions were described in Tables 2 and 3. MIC and MBC values were determined following the procedures described above. […] Fifty microliters of serially diluted peptides (2-fold the final concentration) were added in a 96-well polystyrene plate with 50 μL of the fungal spore suspension. […] The plates were incubated at an optimal temperature without shaking. […] MFC was determined as the lowest peptide concentration at which no fungal growth was observed.
# [17] = system: Cgl FST02; type: cell-based, Colletotricum gloeosporioides; settings: Cgl FST02; optimal minimal medium, crude peptides (Table 9)
# Protocol: as §8
# [18] = system: bacteria, fungal spores, and fungal mycelia; type: cell-based; settings: SYTOX Green, crude peptides, room temperature in dark for 2 h
# [19] = system: Xanthomonas oryzae pv. oryzae strain Xoo28; settings: Xoo Xoo28; Table 7
# [20] = system: Agrobacterium tumefaciens strain Atu C58C1
# [21] = system: Pseudomonas syringae pv. tomato strain DC3000
# [22] = system: Pseudomonas syringae pv. syringae strain B728a; settings: Pss B728a; Table 7
# [23] = system: Ralstonia solanacearum strain Pss4; settings: Rs Pss4; optimal minimal medium, crude peptides (Table 9)
# [24] = system: Ralstonia solanacearum strain Pss190; settings: Rs Pss190; optimal minimal medium, crude peptides (Table 9)
# [25] = system: Klebsiella pneumonia NTUH-K2044
# [26] = Eco DH5α, rich medium, purified peptides
molecule,measurement,setting,value
CCCCCCCCCCCCCC(=O)N[C@@H](Cc1c[nH]c2ccccc12)C(=O)N[C@@H](CCCCN)C(=O)N[C@@H](CCCCN)C(=O)N[C@H](C(=O)N[C@@H](CCCCN)C(=O)N[C@@H](CCCCN)C(=O)N[C@@H](CC(C)C)C(=O)N[C@H](C(=O)N[C@@H](CCCCN)C(=O)N[C@@H](CCCCN)C(=O)N[C@@H](CC(C)C)C(N)=O)C(C)C)C(C)C [pepD3(V)M] (Myristoyl-WKKVKKLVKKL-NH2),MBC,[1],16 mg/L
same,MBC,[2],16 mg/L
same,MIC,[2],16 mg/L
same,MBC,[3],16 mg/L
same,MIC,[3],16 mg/L
WKLLKLLLKLLKLLLKLL [pepA],IC50,[4],— (“—” indicates no antimicrobial activity being detected at the highest peptide concentration (20 μg/mL) tested in this study.)
same,IC50,[5],— (“—” indicates no antimicrobial activity being detected at the highest peptide concentration (20 μg/mL) tested in this study.)
same,IC50,[6]; [26],— (“—” indicates no antimicrobial activity being detected at the highest peptide concentration (20 μg/mL) tested in this study.)
same,IC50,[7],— (“—” indicates no antimicrobial activity being detected at the highest peptide concentration (20 μg/mL) tested in this study.)
same,IC50,[8],— (“—” indicates no antimicrobial activity being detected at the highest peptide concentration (20 μg/mL) tested in this study.)
same,MIC,[9],— (“—” indicates no antimicrobial activity being detected at the highest peptide concentration (64 μg/mL) tested.)
same,α-helix content,[10],over 90%
CCCCCCCCCCCCCC(=O)N[C@@H](Cc1c[nH]c2ccccc12)C(=O)N[C@@H](CCCCN)C(=O)N[C@@H](CCCCN)C(=O)N[C@H](C(=O)N[C@@H](CCCCN)C(=O)N[C@@H](CCCCN)C(=O)N[C@H](C(=O)N[C@H](C(=O)N[C@@H](CCCCN)C(=O)N[C@@H](CCCCN)C(=O)N[C@H](C(=O)N[C@@H](CCCCN)C(=O)N[C@@H](CCCCN)C(=O)N[C@H](C(N)=O)C(C)C)C(C)C)C(C)C)C(C)C)C(C)C [pepV2M] (Myristoyl-WKKVKKVVKKVKKV-NH2),MBC,[1],16 mg/L
same,MBC,[2],16 mg/L
same,MIC,[2],8 mg/L
same,MBC,[3],16 mg/L
same,MIC,[3],16 mg/L
CCCCCCCCCCCCCC(=O)N[C@@H](Cc1c[nH]c2ccccc12)C(=O)N[C@@H](CCCCN)C(=O)N[C@@H](CCCCN)C(=O)N[C@H](C(=O)N[C@@H](CCCCN)C(=O)N[C@@H](CCCCN)C(=O)N[C@H](C(=O)N[C@H](C(=O)N[C@@H](CCCCN)C(=O)N[C@@H](CCCCN)C(=O)N[C@H](C(=O)N[C@@H](CCCCN)C(=O)N[C@@H](CCCCN)C(=O)N[C@H](C(N)=O)[C@@H](C)CC)[C@@H](C)CC)[C@@H](C)CC)[C@@H](C)CC)[C@@H](C)CC [pepI2M] (Myristoyl-WKKIKKIIKKIKKI-NH2),MBC,[1],32 mg/L
Ac-WKKLKKLLKKLKKL-NH2 [pepD2],MBC,[11]; Table 7,7.0 mg/L
same,MIC,[11]; Table 7,4.3 mg/L
same,MBC,[11]; Table 13,8.0 mg/L
same,MIC,[11]; Table 13,8.0 mg/L
same,MBC,[12],1.0 mg/L
same,MIC,[12],1.0 mg/L
same,MBC,[13],3.5 mg/L
same,MIC,[13],3.0 mg/L
same,MBC,[14],32.0 mg/L
same,MBC/MFC,[14],21.3 mg/L
same,MBC,[15],18.8 µg/mL
same,MBC/MFC,[15],8.0 mg/L
same,MBC,"[15]; Pcc, Table 13",6.7. μg/mL
same,MBC/MFC,[16],— (“—” indicates no antimicrobial activity being detected at the highest peptide concentration (32 μg/mL) tested in this study.)
same,MIC,[16],— (“—” indicates no antimicrobial activity being detected at the highest peptide concentration (32 μg/mL) tested in this study.)
same,MBC/MFC,[17],— (“—” indicates no antimicrobial activity being detected at the highest peptide concentration (32 μg/mL) tested in this study.)
same,MIC,[17],— (“—” indicates no antimicrobial activity being detected at the highest peptide concentration (32 μg/mL) tested in this study.)
same,"membranolytic effect on the cell walls of bacteria, fungal spores, and fungal mycelia",[18],significant membranolytic effect
same,MBC,[19],6.0 mg/L
same,MIC,[19],5.0 mg/L
same,MBC,[20],2.2 mg/L
same,MIC,[20],1.6 mg/L
same,MBC,[21],8.8 mg/L
same,MIC,[21],4.8 mg/L
same,MBC,[22],14.7 mg/L
same,MIC,[22],6.0 mg/L
same,MBC/MFC,[23],— (“—” indicates no antimicrobial activity being detected at the highest peptide concentration (32 μg/mL) tested in this study.)
same,MIC,[23],— (“—” indicates no antimicrobial activity being detected at the highest peptide concentration (32 μg/mL) tested in this study.)
same,MBC/MFC,[24],— (“—” indicates no antimicrobial activity being detected at the highest peptide concentration (32 μg/mL) tested in this study.)
same,MIC,[24],— (“—” indicates no antimicrobial activity being detected at the highest peptide concentration (32 μg/mL) tested in this study.)
same,MBC,[25],16 mg/L
same,MIC,[25],16 mg/L
same,MBC,[2],16 mg/L
same,MIC,[2],16 mg/L
same,MBC,[3],32 mg/L
same,MIC,[3],16 mg/L
Ac-WKLLKKLLKKLKKLLKKL-NH2 [pepC],IC50,[4],10.0 mg/L
same,IC50,[5],8.0 mg/L
same,IC50,[6]; [26],10.0 mg/L
same,IC50,[7],12.5 mg/L
same,IC50,[8],12.5 mg/L
same,MIC,[9],32.0 mg/L
Ac-WKLKLKLKLKLKLKLKLK-NH2 [pepE],IC50,[4],4.0 mg/L
same,IC50,[5],2.0 mg/L
same,IC50,[6]; DH5a,10.0 mg/L
same,IC50,[7],7.3 mg/L
same,IC50,[8],20.0 mg/L
same,MIC,[9],— (“—” indicates no antimicrobial activity being detected at the highest peptide concentration (64 μg/mL) tested.)
